# Patent EP1733758A1, “Methods for administration of a farnesyl dibenzodiazepinone” (Ecopia Biosciences Inc., priority 2005, dated 2006)
# Legend:
# [1] = tested on: rat glioma (C6) tumor xenograft; assay: Rat C6 glioblastoma subcutaneous tumor xenograft antitumor efficacy study; assay type: in vivo, female athymic (nu/nu) nude mice; conditions: for %TGI: analyzed at Day 18, P < 0.0001
# Method: The rat C6 glioblastoma antitumor efficacy study was performed at INSERM U318 (Grenoble, France). The rat C6 glioblastoma subcutaneous tumor model is based on the use of a rat C6 cell line obtained from a rat glial tumor induced by N-nitrosomethylurea (Benda et al. (1968), Science, vol 161, 370-371). These animal studies were done according to ethical guidelines of animal experimentation (Charte du comité d'éthique du CNRS, 2003) and the English "Guidelines for the welfare of animals in experimental neoplasia (Second Edition)" from the United Kingdom Coordinating Committee on Cancer Research (UKCCCR) (Workman et al. (1998), Br. J. Cancer, vol 77, no 1, 1-10). On each dosing day, Formula I stock solutions (24 and 40 mg/mL in 20% ethanol, 20% PEG-400 and 60% Tween 80) were diluted with sterile 5% dextrose in water (D5W) to prepare dosing solutions of 6 mg/mL and 10 mg/mL of Formula I in a vehicle consisting of 5% ethanol, 5% PEG-400, 15% Tween-80, and 75% D5W.
# For the rat glioma antitumor efficacy study, female athymic (nu/nu) nude mice (6-7 weeks of age) were inoculated SC with 5 x 10^6 C6 cells (day 0). Tumor bearing animals were randomized (10 per group) when tumors were palpable (day 6). Group 1 (control group) received drug-free vehicle (5% ethanol, 5% PEG-400, 15% Tween-80, and 75% D5W) IP (5 mL/kg), once daily on days 6-18 (q1d x 13). Group 2 received Formula I (6 mg/mL) IP at 20 mg/kg, once daily on days 6 to 13 and then at 10 mg/kg once daily on days 14 to 18. Group 3 received Formula I (6 mg/mL) SC at 30 mg/kg, once daily on days 6 to 13 and then at 15 mg/kg once daily on days 14 to 18. Group 4 received Formula I (10 mg/mL) IV at 100 mg/kg q1d x 5 for 2 weeks. Each animal was euthanized when its tumor reached the predetermined endpoint size (∼2,500 mm^3) or at the end of the study (D18). Treatment period was over 13 days, from day 6 to day 18, post tumor cell inoculation. Tumor growth inhibition (TGI) was calculated on day 16 post tumor cell inoculation, at which time some animals from the vehicle control group had to be sacrificed due to tumor burden.
# In this model and the models of Examples 3, 6 and 7, tumor growth was followed every other day by measuring tumor length (L) and width (W) using a calliper. Measurements were converted to tumor volumes (TV; mm^3) using the standard formula, TV = (L xW^2)/2. Tumor volume at day n was expressed as relative tumor volume (RTV) according to the following formula RTV = TVn / TV0, where TVn is the tumor volume at day n and TV0 is the tumor volume at day 0. The percentage of tumor growth inhibition (%TGI) was determined by 1 ― (mean RTV of treated group/ mean RTV of control group) x 100. […] Statistical analysis was calculated by the two-tailed unpaired t test using the Prism software. Animals were weighed at least twice weekly during and after treatment until completion of the study. The mice were examined frequently for overt signs of any adverse drug-related side effects.
# When the time to endpoint (TTE) for each mouse was also calculated by the following equation: TTE = (log10(endpoint volume)−b)/(m) [formula] Where TTE is expressed in days, endpoint volume is in mm^3, b is the intercept, and m is the slope of the line obtained by linear regression of a log-transformed tumor data set. This value was used to determined % tumor growth delay (%TGD), defined as the increase in median TTE for a treatment group compared to the control group expressed in days, or as a percentage of the median TTE of the control group.
# [2] = Maximum tolerated dose and tolerability of bolus administration in mice; assay type: in vivo; conditions: for MTD: mouse, in vivo
# [3] = Toxicity of 14-day continuous intravenous infusion in rats; assay type: in vivo; conditions: 14-day infusion, all treated and control groups, toxicity was due to the vehicle
# Method: Sprague-Dawley rats received an intravenous continuous infusion over 14 days of Formula I at 25 mg/kg/day, 50 mg/kg/day, or 75 mg/kg/day at a rate of 2 mL/kg/h for 14 consecutive days (same formulation as in Example 7). Blood was collected from the jugular vein in tubes containing K2 EDTA from 3 rats/sex/group at the following time points: 2, 6, and 12 hours after the start of dosing on Day 1, on Day 2 at 6 hours (approximately 30 hours after the start of dosing), on Days 6 and 10 at 6 hours, and on Day 15, 1 hour prior the end of dosing, and then at 5 min, 15 min, 30 min, 1 h, and 2 h after the end of dosing.
# The toxicity was due to the vehicle and was attributed to smaller size of infusion vessels, and concurrent catheter tract infection.
# [4] = Population pharmacokinetic analysis (NONMEM), mouse; assay type: in vivo; conditions: Mouse (IV)
# Method: (§1) An analysis was performed to derive allometric equations for Formula I pharmacokinetic parameters using Formula I plasma concentration-time data from three species, including mouse, rat, and monkey, and to estimate human pharmacokinetic parameters from those allometric equations.
# (§2) Plasma concentrations of Formula I were obtained from mice, rats, and monkeys following intravenous injection or continuous infusion. Formula I pharmacokinetic parameters in mice, rats, and monkeys were estimated using population pharmacokinetic analysis, a function of the software program NONMEM™ (version 5). Typical population pharmacokinetic parameters for Formula I in humans were extrapolated from allometric equations that were derived from pharmacokinetic parameters estimated in the three animal species.
# (§3) A two-compartment model with a first-order elimination from the central compartment adequately described Formula I plasma concentration-time profiles following intravenous bolus injection (30 mg/kg) in mice and rats, 7-day continuous infusion in rats (50 to 170 mg/kg/day), and 14-day continuous infusion in monkeys (5 to 30 mg/kg/day).
# [5] = Population pharmacokinetic analysis (NONMEM), rat; assay type: in vivo; conditions: Rat (IV+CIV)
# Method: as §1, §2, §3
# [6] = typical population PK parameter
structure (smiles),measurement,setting,value
"CC(C)=CCC/C(C)=C/CC/C(C)=C/CN1C(=O)c2cccc(O)c2Nc2c(O)cc(O)cc21 [Formula I, 10-farnesyl-4,6,8-trihydroxy-dibenzodiazepin-11-one]",Maximum body weight loss,"[1]; IP 20 mg/kg (Q1D x 8) followed by 10 mg/kg (Q1D x 7), Day 13",15%
same,difference in tumor volume relative to the vehicle control,[1]; IV bolus 100 mg/kg (Q1D x 5) over 2 weeks,No significant difference
same,body weight loss,"[1]; IV group, 100 mg/kg q1d x 5 for 2 weeks",No significant body weight loss
same,Maximum body weight loss,[1]; SC 30 mg/kg (Q1D x 8) followed by 15 mg/kg (Q1D x 7),11%
same,%TGI,[1]; daily bolus IP 20 then 10 mg/kg,66%
same,%TGI,[1]; daily bolus SC 30 then 15 mg/kg,60%
same,tolerability finding,[2]; IP bolus dosing,some intestinal occlusion
same,tolerability finding,[2]; SC bolus dosing,swelling and thickening of the skin
same,MTD,[2]; IP bolus,20 mg/kg
same,MTD,[2]; IV bolus,200 mg/kg
same,MTD,[2]; SC bolus,30 mg/kg
same,infusion site findings,[3],necrotization and inflammatory lesions at the site of infusion
same,Q,[4]; WT 0.022 Kg,0.001 L/h
same,V1,[4]; WT 0.022 Kg,0.004 L
same,V2,[4]; WT 0.022 Kg,0.005 L
same,Ke,[4]; [6],8.466 h⁻¹
same,Q,[4]; [6],1.09 mL/min/kg
same,V1,[4]; [6],0.176 L/kg
same,V2,[4]; [6],0.225 L/kg
same,Q,[5]; WT 0.225 Kg,0.016 L/h
same,V1,[5]; WT 0.225 Kg,0.028 L
same,V2,[5]; WT 0.225 Kg,0.053 L
same,Ke,[5]; [6],8.651 h⁻¹
same,Q,[5]; [6],1.16 mL/min/kg
same,V1,[5]; [6],0.126 L/kg
same,V2,[5]; [6],0.236 L/kg
